The target in one data set is T1, GluK1 (Rattus norvegicus, UniProt P22756).
T1 construct: made in house; host or cells: Sf9 insect cells (membranes)
The experiment in a line: Radioligand binding at recombinant homomeric GluK1 in Sf9 membranes. The conditions noted are these: recombinant rat homomeric receptor, [3H]-(S)-NF608, mean ± SEM. On the procedure: (§1) Ligand binding affinities at recombinant rat homomeric GluA2, GluK1−3, and GluK5 were determined as previously detailed. […] The filters were dried at 70 °C for 1 h, and 50 μL/well Microscint 20 (PerkinElmer, Waltham, MA, USA) was added. Radioactivity was detected with a TopCounter (PerkinElmer, Waltham, MA, USA). GluA2 and GluK5 assays were filtered on GF/C type filters using Millipore 12-well filtration manifolds (Merck Life Science, Søborg, Denmark) and washed twice with ice-cold assay buffer. Filters were placed in pony vials (PerkinElmer, Waltham, MA, USA), 3 mL of Ultima Gold scintillation fluid (PerkinElmer, Waltham, MA, USA) was added, and DPM (disintegrations per minute) were determined using a TriCarb 2900 scintillation counter (PerkinElmer, Waltham, MA, USA).
(§2) All competition curves (n ≥ 3 per ligand) were determined in triplicate. Data were analyzed using GraphPad Prism 6 (GraphPad Software, San Diego, CA, USA) to determine ligand affinity (Ki) and Hill coefficient (nH) using the one-site Ki and four-parameter logistics equations, respectively.

The target of a further data set is T2, GluK2 (Rattus norvegicus, UniProt P42260).
T2 construct: made in house; host or cells: Sf9 insect cells (membranes)
As to the kind of experiment: Radioligand binding at recombinant homomeric GluK2 in Sf9 membranes. As to conditions: recombinant rat homomeric receptor, [3H]-kainic acid, mean ± SEM. The procedure:
as §1, §2

In the next data set the target is T3, GluK3 (Rattus norvegicus, UniProt P42264).
T3 construct: made in house; host or cells: Sf9 insect cells (membranes)
As to the kind of experiment: Radioligand binding at recombinant homomeric GluK3 in Sf9 membranes. As to conditions: recombinant rat homomeric receptor, [3H]-kainic acid, mean ± SEM. On the procedure:
as §1, §2

Another data set addresses T4, GluK5 (Rattus norvegicus, UniProt Q63273).
T4 construct: made in house; host or cells: Sf9 insect cells (membranes)
T4 sequence (Q63273 15-979): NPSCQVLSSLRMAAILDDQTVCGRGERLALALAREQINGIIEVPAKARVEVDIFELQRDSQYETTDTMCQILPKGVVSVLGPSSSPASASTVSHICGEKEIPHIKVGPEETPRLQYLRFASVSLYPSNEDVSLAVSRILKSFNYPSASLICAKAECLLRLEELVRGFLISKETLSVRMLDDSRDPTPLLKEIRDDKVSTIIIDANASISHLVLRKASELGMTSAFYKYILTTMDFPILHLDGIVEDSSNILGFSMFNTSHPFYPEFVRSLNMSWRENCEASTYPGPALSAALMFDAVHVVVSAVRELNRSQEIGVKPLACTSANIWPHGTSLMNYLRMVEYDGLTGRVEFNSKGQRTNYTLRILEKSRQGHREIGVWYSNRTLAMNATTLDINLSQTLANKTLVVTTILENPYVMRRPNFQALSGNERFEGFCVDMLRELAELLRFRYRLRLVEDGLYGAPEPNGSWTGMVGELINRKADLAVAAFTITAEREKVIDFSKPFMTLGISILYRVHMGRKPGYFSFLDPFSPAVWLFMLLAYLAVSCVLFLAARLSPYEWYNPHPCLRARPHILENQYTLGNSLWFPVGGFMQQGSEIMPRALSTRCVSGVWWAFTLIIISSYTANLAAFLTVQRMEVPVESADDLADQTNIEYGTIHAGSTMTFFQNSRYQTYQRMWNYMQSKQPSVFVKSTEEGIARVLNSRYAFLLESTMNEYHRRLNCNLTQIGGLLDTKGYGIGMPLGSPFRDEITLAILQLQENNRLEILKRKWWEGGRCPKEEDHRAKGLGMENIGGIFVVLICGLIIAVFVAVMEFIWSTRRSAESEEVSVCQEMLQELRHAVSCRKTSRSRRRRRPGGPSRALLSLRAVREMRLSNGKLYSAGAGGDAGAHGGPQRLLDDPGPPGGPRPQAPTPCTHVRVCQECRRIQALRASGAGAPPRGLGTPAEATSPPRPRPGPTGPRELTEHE
The experiment in a line: Radioligand binding at recombinant homomeric GluK5 in Sf9 membranes. The conditions noted are these: recombinant rat homomeric receptor, [3H]-kainic acid, mean ± SEM. The procedure: as §1, §2

The target of the next data set is T5, GluA2 (Rattus norvegicus, UniProt P19491).
T5 construct: made in house; host or cells: Sf9 insect cells (membranes)
The experiment in a line: Radioligand binding at recombinant homomeric GluA2 in Sf9 membranes. As to conditions: recombinant rat homomeric receptor, [3H]-(RS)-AMPA, mean ± SEM. The procedure:
as §1, §2

Each structure is given as a SMILES string.

What is called Ki is a dissociation constant, usually derived from enzyme kinetics or from competition with a known ligand. Broadly, the melting point is the temperature, or range, at which the solid turns liquid.

T3 sequence (P42264 32-919): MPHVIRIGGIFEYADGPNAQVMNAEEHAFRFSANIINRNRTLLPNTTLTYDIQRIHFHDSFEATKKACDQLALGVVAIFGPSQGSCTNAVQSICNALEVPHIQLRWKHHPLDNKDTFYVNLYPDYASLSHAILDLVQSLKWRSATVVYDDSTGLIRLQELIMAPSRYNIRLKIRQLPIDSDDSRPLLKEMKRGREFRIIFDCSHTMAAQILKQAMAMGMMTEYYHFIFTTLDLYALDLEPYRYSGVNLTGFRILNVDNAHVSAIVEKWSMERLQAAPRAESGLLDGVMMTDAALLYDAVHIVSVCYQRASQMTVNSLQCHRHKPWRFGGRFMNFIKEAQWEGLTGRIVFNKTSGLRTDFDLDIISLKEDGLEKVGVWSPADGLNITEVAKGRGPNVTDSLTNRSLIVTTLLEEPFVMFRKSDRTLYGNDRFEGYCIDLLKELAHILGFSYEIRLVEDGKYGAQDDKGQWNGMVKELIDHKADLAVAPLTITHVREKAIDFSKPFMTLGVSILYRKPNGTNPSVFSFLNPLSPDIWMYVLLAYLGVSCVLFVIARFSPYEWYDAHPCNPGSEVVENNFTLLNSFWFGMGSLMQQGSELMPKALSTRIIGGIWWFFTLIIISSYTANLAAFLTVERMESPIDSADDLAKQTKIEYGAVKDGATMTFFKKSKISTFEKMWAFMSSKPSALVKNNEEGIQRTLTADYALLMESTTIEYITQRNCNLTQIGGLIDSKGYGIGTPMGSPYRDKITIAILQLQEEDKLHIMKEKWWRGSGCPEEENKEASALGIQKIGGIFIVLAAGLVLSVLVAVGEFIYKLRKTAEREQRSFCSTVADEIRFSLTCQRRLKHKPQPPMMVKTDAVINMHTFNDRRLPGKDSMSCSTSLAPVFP
T2 sequence (P42260 32-908): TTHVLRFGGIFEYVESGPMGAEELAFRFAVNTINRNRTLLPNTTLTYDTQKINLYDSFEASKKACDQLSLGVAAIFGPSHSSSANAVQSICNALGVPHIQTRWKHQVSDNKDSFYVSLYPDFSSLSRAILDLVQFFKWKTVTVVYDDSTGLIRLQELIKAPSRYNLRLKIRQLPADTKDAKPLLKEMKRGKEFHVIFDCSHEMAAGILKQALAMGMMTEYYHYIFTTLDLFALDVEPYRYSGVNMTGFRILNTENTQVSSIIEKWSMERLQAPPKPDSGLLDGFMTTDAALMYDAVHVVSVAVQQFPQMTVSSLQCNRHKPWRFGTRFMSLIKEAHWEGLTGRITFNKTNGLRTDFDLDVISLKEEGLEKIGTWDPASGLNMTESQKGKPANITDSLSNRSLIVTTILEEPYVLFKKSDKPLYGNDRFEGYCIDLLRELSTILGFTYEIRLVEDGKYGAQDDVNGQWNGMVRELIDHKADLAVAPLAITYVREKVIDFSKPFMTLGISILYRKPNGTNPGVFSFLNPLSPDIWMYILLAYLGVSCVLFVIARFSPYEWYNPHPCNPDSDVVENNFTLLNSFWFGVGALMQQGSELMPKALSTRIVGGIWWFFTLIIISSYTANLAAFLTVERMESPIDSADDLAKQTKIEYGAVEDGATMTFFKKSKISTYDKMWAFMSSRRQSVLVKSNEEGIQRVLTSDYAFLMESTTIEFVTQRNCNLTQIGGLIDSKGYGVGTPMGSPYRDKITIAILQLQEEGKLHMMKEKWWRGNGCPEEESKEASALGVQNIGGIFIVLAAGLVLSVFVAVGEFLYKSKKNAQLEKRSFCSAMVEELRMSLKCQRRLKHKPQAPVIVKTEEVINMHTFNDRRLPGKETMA
T5 sequence (P19491 22-883): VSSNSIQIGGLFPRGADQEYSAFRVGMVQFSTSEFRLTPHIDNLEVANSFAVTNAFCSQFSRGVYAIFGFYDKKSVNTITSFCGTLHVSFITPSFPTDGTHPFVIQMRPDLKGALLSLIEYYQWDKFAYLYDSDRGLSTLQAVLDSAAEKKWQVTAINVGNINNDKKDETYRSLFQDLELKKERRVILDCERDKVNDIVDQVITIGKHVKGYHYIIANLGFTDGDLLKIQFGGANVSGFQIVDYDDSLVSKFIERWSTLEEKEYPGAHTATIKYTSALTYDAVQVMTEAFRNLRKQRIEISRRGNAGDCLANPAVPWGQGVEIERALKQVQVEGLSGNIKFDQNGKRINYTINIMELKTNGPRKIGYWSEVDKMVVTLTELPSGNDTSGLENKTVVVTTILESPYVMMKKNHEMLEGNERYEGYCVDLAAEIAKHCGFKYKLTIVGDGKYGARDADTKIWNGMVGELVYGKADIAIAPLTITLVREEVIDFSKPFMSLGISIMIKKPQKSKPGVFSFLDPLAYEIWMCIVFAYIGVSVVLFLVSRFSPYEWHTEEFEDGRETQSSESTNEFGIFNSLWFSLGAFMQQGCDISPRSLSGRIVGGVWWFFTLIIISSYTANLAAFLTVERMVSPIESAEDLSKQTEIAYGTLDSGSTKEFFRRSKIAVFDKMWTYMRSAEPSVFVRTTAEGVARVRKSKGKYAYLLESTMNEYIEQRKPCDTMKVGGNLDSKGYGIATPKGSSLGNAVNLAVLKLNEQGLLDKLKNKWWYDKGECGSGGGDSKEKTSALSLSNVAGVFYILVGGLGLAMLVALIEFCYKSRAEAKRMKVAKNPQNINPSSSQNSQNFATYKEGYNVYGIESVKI
T1 sequence (P22756 31-949): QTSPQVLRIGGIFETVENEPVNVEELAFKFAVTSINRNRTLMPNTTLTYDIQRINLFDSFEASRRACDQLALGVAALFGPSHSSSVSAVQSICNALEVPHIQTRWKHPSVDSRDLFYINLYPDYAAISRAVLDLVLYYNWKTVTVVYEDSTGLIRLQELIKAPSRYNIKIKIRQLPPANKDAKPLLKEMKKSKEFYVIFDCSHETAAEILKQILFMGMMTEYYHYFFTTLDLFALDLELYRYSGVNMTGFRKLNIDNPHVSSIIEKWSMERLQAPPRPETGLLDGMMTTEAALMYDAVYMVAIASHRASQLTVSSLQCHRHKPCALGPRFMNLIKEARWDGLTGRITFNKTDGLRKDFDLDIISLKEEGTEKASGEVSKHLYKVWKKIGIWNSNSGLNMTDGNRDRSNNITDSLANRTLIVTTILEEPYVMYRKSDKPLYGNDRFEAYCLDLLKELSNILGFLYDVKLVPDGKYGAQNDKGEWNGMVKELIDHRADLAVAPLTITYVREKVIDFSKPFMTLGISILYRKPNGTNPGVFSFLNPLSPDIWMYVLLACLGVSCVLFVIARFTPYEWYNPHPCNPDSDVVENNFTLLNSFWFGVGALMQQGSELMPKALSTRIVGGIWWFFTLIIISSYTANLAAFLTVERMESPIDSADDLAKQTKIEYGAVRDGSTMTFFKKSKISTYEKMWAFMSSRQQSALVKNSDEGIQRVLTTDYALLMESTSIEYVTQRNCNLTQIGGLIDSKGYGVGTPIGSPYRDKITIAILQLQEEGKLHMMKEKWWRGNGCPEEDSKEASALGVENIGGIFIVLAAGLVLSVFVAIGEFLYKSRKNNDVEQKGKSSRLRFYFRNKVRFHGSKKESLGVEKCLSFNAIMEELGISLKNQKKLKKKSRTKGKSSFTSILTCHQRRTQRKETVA

As for `Cc1cccc(C#Cc2ccc3c(c2)[nH]c(=O)c(=O)n3NC(=O)c2ccccc2)c1` [Compound 5], the melting point lay within 318 to 320 °C. The Ki at GluK1 was around 100 µM. Besides, at GluK2, the Ki is around 100 µM. Moreover, at GluK3, the Ki came to 1.4 ± 0.4 µM. Besides, the Ki on GluK5 is above 100 µM. Further, the Ki at GluA2 is above 100 µM.

In turn, `Cc1ccc(C#Cc2ccc3c(c2)[nH]c(=O)c(=O)n3NC(=O)c2ccccc2)cc1` [Compound 6] yielded a melting point of 325 to 327 °C. For the same molecule, the Ki on GluK1 was at least 100 µM. Besides, the Ki at GluK3 turned out to be 6.1 ± 0.8 µM.

In turn, `CCc1ccc(C#Cc2ccc3c(c2)[nH]c(=O)c(=O)n3NC(=O)c2ccccc2)cc1` [Compound 7] registered a melting point of 308 to 310 °C. The inhibition constant (Ki) at GluK1 was above 100 µM. Besides, the Ki at GluK2 is above 100 µM. Also, at GluK3, the Ki was determined as 20 ± 1 µM. Also, the Ki on GluK5 was above 100 µM. The Ki at GluA2 was above 100 µM.

Turning to `CCCc1ccc(C#Cc2ccc3c(c2)[nH]c(=O)c(=O)n3NC(=O)c2ccccc2)cc1` [Compound 8], the melting point was 305 to 306 °C. Also, on GluK1, the Ki was above 100 µM. At GluK2, the Ki was above 100 µM. The Ki on GluK3 came out at 50 ± 12 µM. Besides, the Ki at GluK5 is above 100 µM. The Ki at GluA2 was above 100 µM.

Molecule `CC(C)c1ccc(C#Cc2ccc3c(c2)[nH]c(=O)c(=O)n3NC(=O)c2ccccc2)cc1` [Compound 9] returned a melting point of 263 to 264 °C. At GluK1, the Ki is above 100 µM. Also, on GluK2, the Ki was above 100 µM. Further, the Ki at GluK3 came out at 38 ± 10 µM. The Ki at GluK5 was above 100 µM. Further, at GluA2, the Ki is above 100 µM.

`O=C(Nn1c(=O)c(=O)[nH]c2cc(C#Cc3ccc(Cl)cc3)ccc21)c1ccccc1` [Compound 10] had a melting point of 326 to 327 °C. In addition, the Ki on GluK1 is above 100 µM. The Ki on GluK2 is above 100 µM. Moreover, the Ki on GluK3 is 3.5 ± 0.7 µM. Further, the Ki at GluK5 is above 100 µM. Further, the Ki on GluA2 was above 100 µM.

As for `O=C(Nn1c(=O)c(=O)[nH]c2cc(C#Cc3ccc(C(F)(F)F)cc3)ccc21)c1ccccc1` [Compound 11], the inhibitory constant (Ki) is around 100 µM on GluK1; above 100 µM at GluK2; above 100 µM at GluK3; above 100 µM on GluK5; above 100 µM on GluA2.

Molecule `COc1ccc(C#Cc2ccc3c(c2)[nH]c(=O)c(=O)n3NC(=O)c2ccccc2)cc1` [Compound 12] yielded a melting point of 304 to 305 °C. For the same molecule, the Ki on GluK1 is above 100 µM. For the same molecule, the Ki on GluK2 is above 100 µM. Further, at GluK3, the Ki amounted to 8.3 ± 0.4 µM. Moreover, the Ki on GluK5 was above 100 µM. Besides, the Ki at GluA2 was above 100 µM.

In turn, `O=C(Nn1c(=O)c(=O)[nH]c2cc(C#Cc3ccc(Oc4ccccc4)cc3)ccc21)c1ccccc1` [Compound 13] came in with a melting point of 262 to 263 °C. Moreover, the inhibition constant Ki on GluK1 was at least 100 µM. In addition, the Ki at GluK3 amounted to 7.9 ± 0.7 µM.

On to `O=C(O)c1cccc(C#Cc2ccc3c(c2)[nH]c(=O)c(=O)n3NC(=O)c2ccccc2)c1` [Compound 14], for which the melting point lay within 310 to 312 °C. Besides, on GluK1, the Ki was above 100 µM. Further, the Ki on GluK2 is above 100 µM. Besides, the Ki at GluK3 was 28 ± 2 µM. Besides, the Ki on GluK5 is above 100 µM. Further, the Ki on GluA2 was above 100 µM.

The molecule `O=C(O)c1ccc(C#Cc2ccc3c(c2)[nH]c(=O)c(=O)n3NC(=O)c2ccccc2)cc1` [Compound 15] returned a melting point of 348 to 349 °C. Moreover, on GluK1, the inhibition constant (Ki) is above 100 µM. In addition, on GluK2, the Ki is above 100 µM. For the same molecule, the Ki at GluK3 worked out at 31 ± 4 µM. On GluK5, the Ki was above 100 µM. The Ki on GluA2 was above 100 µM.

On to `NS(=O)(=O)c1ccc(C#Cc2ccc3c(c2)[nH]c(=O)c(=O)n3NC(=O)c2ccccc2)cc1` [Compound 16], for which the melting point lay in the range of 303 to 305 °C. Also, the Ki at GluK1 is above 100 µM. For the same molecule, the Ki at GluK2 is above 100 µM. Besides, the Ki at GluK3 was around 100 µM. Also, the Ki on GluK5 was above 100 µM. Also, the Ki at GluA2 is above 100 µM.

As for `O=C(Nn1c(=O)c(=O)[nH]c2cc(-c3cc4ccccc4o3)ccc21)c1ccccc1` [Compound 18], the Ki at GluK1 is above 100 µM; at GluK3 it was 14 ± 2 µM.

Turning to `O=C(Nn1c(=O)c(=O)[nH]c2cc(C#Cc3cccc(O)c3)ccc21)c1ccccc1` [Compound 19], the melting point was in the range of 313 to 314 °C. For the same molecule, the Ki at GluK1 was above 100 µM. Further, at GluK2, the Ki is above 100 µM. In addition, on GluK3, the Ki amounted to 3.2 ± 0.6 µM. For the same molecule, the Ki on GluK5 is above 100 µM. For the same molecule, at GluA2, the Ki was around 100 µM.

Consider `O=C(Nn1c(=O)c(=O)[nH]c2cc(C#Cc3ccc(CO)cc3)ccc21)c1ccccc1` [Compound 20], for which the melting point lay within 298 to 300 °C. The Ki on GluK1 was around 100 µM. For the same molecule, the inhibition constant Ki at GluK2 is above 100 µM. Also, on GluK3, the Ki came out at 5.8 ± 1.5 µM. Besides, the Ki at GluK5 was above 100 µM. The Ki at GluA2 is above 100 µM.

`Nc1ccccc1C#Cc1ccc2c(c1)[nH]c(=O)c(=O)n2NC(=O)c1ccccc1` [Compound 21] showed a melting point of 303 to 305 °C. Further, the Ki on GluK1 was 14 ± 2 µM. On GluK3, the Ki is 1 ± 0.1 µM.

As to `Nc1cccc(C#Cc2ccc3c(c2)[nH]c(=O)c(=O)n3NC(=O)c2ccccc2)c1` [Compound 22], the melting point lay in the range of 274 to 275 °C. Moreover, at GluK1, the Ki is above 100 µM. Moreover, the Ki on GluK3 was around 100 µM.

`Nc1ccc(C#Cc2ccc3c(c2)[nH]c(=O)c(=O)n3NC(=O)c2ccccc2)cc1` [Compound 23] showed a melting point of 312 to 314 °C. Also, the Ki on GluK1 was above 100 µM. Also, the Ki at GluK2 was above 100 µM. Moreover, the Ki on GluK3 turned out to be 1.4 ± 0.2 µM. For the same molecule, the Ki at GluK5 is above 100 µM. In addition, the inhibition constant Ki on GluA2 is above 100 µM.

Turning to `CN(C)c1ccc(C#Cc2ccc3c(c2)[nH]c(=O)c(=O)n3NC(=O)c2ccccc2)cc1` [Compound 24], the melting point was 273 to 275 °C. Also, the Ki on GluK1 came out at 39 ± 4 µM. Further, on GluK3, the Ki was 24 ± 4 µM.

As to `O=C(Nn1c(=O)c(=O)[nH]c2cc(C#Cc3ccncc3)ccc21)c1ccccc1` [Compound 25], the melting point was in the range of 239 to 241 °C. Besides, the Ki at GluK1 was above 100 µM. Also, the Ki at GluK2 is above 100 µM. In addition, the Ki at GluK3 was 25 ± 6 µM. The Ki at GluK5 was above 100 µM. In addition, at GluA2, the Ki is above 100 µM.

Turning to `NS(=O)(=O)c1cccc2c1c([N+](=O)[O-])cc1nc(O)c(O)nc12` [NBQX, reference compound], the values for the Ki on GluK2 and at GluK5 were 5.4 ± 1.2 µM and 152 ± 23 µM, respectively.

For the origin of these results see paper PMC9369419 (International Journal of Molecular Sciences, 2022).
